Measured values reported in patent US7517857B2, “Immune-modulating peptide” (POSCO, priority 2002, dated 2009).

Target: T1, FPRL1 (Homo sapiens, UniProt P25090)
T1 construct: expressed in transfected cells; host or cells: RBL-2H3 (rat basophilic leukemia) cells, G418-selected
T1 sequence (P25090 1-351): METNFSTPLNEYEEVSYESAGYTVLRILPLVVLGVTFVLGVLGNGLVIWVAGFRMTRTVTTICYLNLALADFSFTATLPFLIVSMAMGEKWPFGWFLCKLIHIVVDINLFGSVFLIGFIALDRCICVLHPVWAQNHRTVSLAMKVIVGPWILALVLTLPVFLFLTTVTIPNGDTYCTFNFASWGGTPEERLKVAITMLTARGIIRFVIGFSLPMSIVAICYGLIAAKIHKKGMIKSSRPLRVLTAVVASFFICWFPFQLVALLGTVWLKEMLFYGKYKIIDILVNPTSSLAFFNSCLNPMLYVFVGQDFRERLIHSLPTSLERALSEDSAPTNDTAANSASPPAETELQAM
Test: ERK phosphorylation in FPRL1-expressing RBL-2H3 cells (immunoblot)
Type: cell-based
Description: Cultured RBL-2H3 cells were aliquoted into 2×10^6 cells and stimulated with the indicated concentrations of WKYMVm and the peptides of the present invention for the indicated lengths of time. FPR- or FPRL1-expressing RBL-2H3 cells were stimulated with 1 μM WKYMVm for various periods of time (FIG. 3A). Two cells were preincubated with a vehicle or 100 ng/ml of PTX (24 hr), 50 μM of LY294002 (15 min), 5 μM of GFX (15 min), 10 μM BAPTA/AM (60 min), or 50 μM PD98059 (60 min) prior to 1 μM of WKYMVm treatment (FIG. 3B). FPR- or FPRL1-expressing RBL2H3 cells were stimulated with 10 μM of the peptides of the present invention for 2 min or 5 min, respectively (FIG. 3C).
After stimulation, the cells were washed with serum-free RPMI and lysed in a lysis buffer (20 mM Hepes, pH 7.2, 10% glycerol, 150 mM NaCl, 1% Triton X-100, 50 mM NaF, 1 mM Na3VO4, 10 μg/ml leupeptin, 10 μg/ml aprotinin, and 1 mM phenylmethylsulfonyl fluoride). The detergent-insoluble materials were pelleted by centrifugation (12,000×g, 15 min, at 4° C.), and the soluble supernatant fraction was removed and stored at −80° C. or used immediately. Protein concentrations in the lysates were determined using the Bradford protein assay reagent.
Each sample ([…] of protein) was subjected to 10% SDS-PAGE and phosphorylated ERK was determined by an immunoblot analysis with an anti-phospho-ERK antibody. Protein samples were prepared for electrophoresis by addition of a concentrated sample buffer. The portions in the samples were then separated by an 10% SDS-polyacrylamide gel using the buffer system described by Laemmli (17).
Following the electrophoresis, a western blot analysis with an anti-ERK2 antibody was performed to confirm that the same amounts of samples were used for the experiments. The proteins were blotted onto nitrocellulose membranes. The nitrocellulose membranes were then blocked by incubation with TBS (Tris-buffered saline, 0.05% Tween-20) containing 5% non-fat dry milk. Subsequently, the membranes were incubated with anti-phospho-ERK antibody, anti-phospho-Akt antibody or anti-Akt antibody washed with TBS. For a PKC translocation assay, an antibody for PKC isozyme-specific was incubated. Antigen-antibody complexes were visualized after incubating the membrane with a 1:5000 diluted goat anti-rabbit IgG or goat anti-mouse IgG antibody coupled to horseradish peroxidase and using the enhanced chemiluminescence detection system.

How did the “time of maximal ERKs activity after peptide treatment” value (1 μM WKYMVm) turn out when `CSCC[C@H](NC(=O)[C@H](Cc1ccc(O)cc1)NC(=O)[C@H](CCCCN)NC(=O)[C@@H](N)Cc1c[nH]c2ccccc12)C(=O)N[C@H](C(=O)N[C@H](CCSC)C(N)=O)C(C)C` [WKYMVm-NH2, Trp-Lys-Tyr-Met-Val-D-Met-NH2, reference compound] was run?
Its value is 5 min.

What about the “ERKs phosphorylation/activation” value (10 μM peptides 5 min (WKYMVm time course 1 μM)) of the same compound?
Its value is “induced transient activation of ERKs”.
